Reference: US7943577B2, “Alpha-fetoprotein peptides and uses thereof” (Albany Medical College, priority 2001, dated 2011)

What was measured:
C6 glioma cells = assay: PCNA and nuclear ERα immunoblot, C6; assay type: cell-based, murine; parameters: key to Total Nuclear Estrogen Receptor / PCNA accumulation: “+” indicates increase; “−” indicates decrease; “NC” indicates no change
Experimental: (§1) Cell lines. Glioma cells: C6 cells were cultured in F-12K medium with 18% FBS. F98 cells and GL261 cells were cultured in DMEM with 10% FBS. Head and neck cancer: 22B cells were cultured in DMEM with 10% FBS. Papillary thyroid cancers: BHP2-7 cells and BHP18-21 cells were cultured in DMEM with 10% FBS. Small cell lung cancer: HTB184 cells were cultured in RPMI medium with 10% FBS. Breast cancers: MCF-7 cells were cultured in DMEM (w/o phenol red) with 5% FBS and MDA-MB cells were cultured in DMEM with 10% FBS. Colon cancer: Colo 205 cells were cultured in RPMI medium with 10% FBS. Ovarian cancer: OVCAR-3 cells were culture in RPMI medium with 20% FBS supplemented with insulin. Prostate cancers: LNCaP cells were cultured in RPMI medium with 10% FBS. DU145 cells were cultured in MEM with 10% FBS and PC3 cells were cultured in F-12 medium with 10% FBS. Cervical cancer: HeLa cells were cultured in MEM with 10% FBS. Melanoma cells were cultured in DMEM with 10% FBS. These conditions were determined to maintain cellular production of proliferating cell nuclear antigen (PCNA) at high levels immediately prior to study of AFP-related peptide. All cell cultures were maintained in a 5% CO2/95% O2 incubator at 37 C. Cell fractionation. Fractionation in a microfuge and preparation of nucleoproteins was by our previously reported methods (1-3). Nuclear extracts were prepared by resuspension of the crude nuclei in high salt buffer (hypotonic buffer with 420 mM NaCl and 20% glycerol) at 4° C. with rocking for 1 hr. The supernatants were collected after subsequent centrifugation at 4° C. and 13,000 rpm for 10 min. Immunoblotting. The techniques are standard and have been described in a number of our publications (1-3). In brief, nucleoproteins were separated on discontinuous SDS-PAGE and then transferred by electroblotting to nitocellulose membranes (Millipore, Bedford, Mass.). […] Immunoreactive proteins are detected by chemiluminescence.

F98 glioma cells = assay: PCNA and nuclear ERα immunoblot, F98; assay type: cell-based, murine; parameters: key to Total Nuclear Estrogen Receptor / PCNA accumulation: “+” indicates increase; “−” indicates decrease; “NC” indicates no change
Experimental: as §1

[1] = system: head and neck 22B cancer cells; assay: PCNA and nuclear ERα immunoblot, 22B; assay type: cell-based, human; parameters: key to Total Nuclear Estrogen Receptor / PCNA accumulation: “+” indicates increase; “−” indicates decrease; “NC” indicates no change
Experimental: as §1

[2] = system: BHP 2-7 papillary thyroid cancer cells; assay: PCNA and nuclear ERα immunoblot, BHP 2-7; assay type: cell-based; parameters: key to Total Nuclear Estrogen Receptor / PCNA accumulation: “+” indicates increase; “−” indicates decrease; “NC” indicates no change
Experimental: as §1

[3] = system: BHP 18-21 papillary thyroid cancer cells; assay: PCNA and nuclear ERα immunoblot, BHP 18-21; assay type: cell-based; parameters: key: “+” indicates increase; “−” indicates decrease; “NC” indicates no change
Experimental: as §1, with “(1-3).” for “(1-3). Nuclear extracts were prepared by resuspension of the crude nuclei in high salt buffer (hypotonic buffer with 420 mM NaCl and 20% glycerol) at 4° C. with rocking for 1 hr. The supernatants were collected after subsequent centrifugation at 4° C. and 13,000 rpm for 10 min. Immunoblotting. The techniques are standard and have been described in a number of our publications (1-3). In brief, nucleoproteins were separated on discontinuous SDS-PAGE and then transferred by electroblotting to nitocellulose membranes (Millipore, Bedford, Mass.).”

[4] = system: small cell lung cancer HTB 184 cells; assay: PCNA and nuclear ERα immunoblot, HTB 184; assay type: cell-based, human; parameters: key to Total Nuclear Estrogen Receptor / PCNA accumulation: “+” indicates increase; “−” indicates decrease; “NC” indicates no change
Experimental: as §1

[5] = system: MCF-7 breast cancer cells; assay: PCNA and nuclear ERα immunoblot, MCF-7; assay type: cell-based, human; parameters: key to Total Nuclear Estrogen Receptor / PCNA accumulation: “+” indicates increase; “−” indicates decrease; “NC” indicates no change
Experimental: as §1

[6] = system: MDA-MB breast cancer cells; assay: PCNA and nuclear ERα immunoblot, MDA-MB; assay type: cell-based, human; parameters: key to Total Nuclear Estrogen Receptor / PCNA accumulation: “+” indicates increase; “−” indicates decrease; “NC” indicates no change
Experimental: as §1

[7] = system: colon cancer (Colo 205) cells; assay: PCNA and nuclear ERα immunoblot, Colo 205; assay type: cell-based, human; parameters: key to Total Nuclear Estrogen Receptor / PCNA accumulation: “+” indicates increase; “−” indicates decrease; “NC” indicates no change
Experimental: as §1

[8] = system: ovarian cancer OVCAR-3 cells; assay: PCNA and nuclear ERα immunoblot, OVCAR-3; assay type: cell-based; parameters: key to Total Nuclear Estrogen Receptor / PCNA accumulation: “+” indicates increase; “−” indicates decrease; “NC” indicates no change
Experimental: as §1

[9] = system: DU145 prostate carcinoma cells; assay: PCNA and nuclear ERα immunoblot, DU145; assay type: cell-based, human; parameters: key to Total Nuclear Estrogen Receptor / PCNA accumulation: “+” indicates increase; “−” indicates decrease; “NC” indicates no change
Experimental: as §1

[10] = system: PC3 prostate carcinoma cells; assay: PCNA and nuclear ERα immunoblot, PC3; assay type: cell-based, human; parameters: key to Total Nuclear Estrogen Receptor / PCNA accumulation: “+” indicates increase; “−” indicates decrease; “NC” indicates no change
Experimental: as §1

cancer cell lines = assay: PCNA and nuclear ERα immunoblot, summary over cancer cell lines; assay type: cell-based; details: E2 1×10^−9 M
Experimental: as §1

[11] = BHP 2-7 (Papillary Thyroid Cancer)
[12] = HTB 184 (Small Cell Lung Cancer)

## C[C@]12CC[C@@H]3c4ccc(O)cc4CC[C@H]3[C@@H]1CC[C@@H]2O [E2, 17β-estradiol]
C6 glioma cells; C6 (Glioma)
  PCNA accumulation: +
  Total Nuclear Estrogen Receptor: +
C6 glioma cells; C6, 10^−9 M E2 or 10^−6 M AFP-peptide, 24 h
  nuclear ERα: increased nuclear accumulation of ERα
F98 glioma cells; F98 (Glioma)
  PCNA accumulation: +
  Total Nuclear Estrogen Receptor: +
F98 glioma cells; F98, 10^−9 M E2 or 10^−6 M AFP-peptide, 24 h
  nuclear ERα: increased nuclear accumulation of ERα
[1]; 22B (Head Neck Cancer)
  PCNA accumulation: +
  Total Nuclear Estrogen Receptor: +
[1]; 22B, 10^−9M E2 or 10^−7 M AFP-peptide, 24 h
  nuclear ERα: increased nuclear accumulation of ERα
[2]; [11]
  PCNA accumulation: +
  Total Nuclear Estrogen Receptor: +
[2]; BHP 2-7, 10^−9 M E2 or 10^−7 M AFP-peptide, 24 h
  nuclear ERα: increased nuclear accumulation of ERα
[3]
  PCNA accumulation: +
  Total Nuclear Estrogen Receptor: +
[4]; [12]
  PCNA accumulation: +
  Total Nuclear Estrogen Receptor: +
[4]; HTB 184, 10^−9M E2 or 10^−6 M AFP-peptide, 24 h
  nuclear ERα: increased nuclear ERα accumulation
[5]; MCF-7 (Breast Cancer)
  PCNA accumulation: +
  Total Nuclear Estrogen Receptor: +
[5]; MCF-7, 10^−9 M E2 or 10^−8 M AFP-peptide, 24 h
  nuclear accumulation of activated ER (phosphoERα): increased nuclear accumulation of activated ER (phosphoERα)
[6]; MDA-MB (Breast Cancer)
  PCNA accumulation: NC
  Total Nuclear Estrogen Receptor: NC
[6]; MDA-MB, 10^−9 M E2 or 10^−6 M peptide, 24 h
  nuclear ER: no significant change in ER
[7]; Colo205 (Colon Cancer)
  PCNA accumulation: NC
  Total Nuclear Estrogen Receptor: NC
[7]; Colo 205, 10^−9 M E2 or 10^−7 M AFP-peptide, 24 h
  nuclear ERα: did not increase nuclear accumulation of ER
[8]; OVCAR-3 (Ovarian Cancer)
  PCNA accumulation: +
  Total Nuclear Estrogen Receptor: NC
[8]; OVCAR-3, 10^−9 M E2 or 10^−7M AFP-peptide, 24 h
  nuclear ERα: did not increase nuclear accumulation of ERα
[9]; DU 145 (Prostate Cancer)
  PCNA accumulation: −
  Total Nuclear Estrogen Receptor: −
[9]; DU145, 10^−9 M E2 or 10^−6 M AFP-peptide, 24 h
  nuclear ERα: did not increase nuclear accumulation of ERα
[10]; PC 3 (Prostate Cancer)
  PCNA accumulation: −
  Total Nuclear Estrogen Receptor: NC
[10]; PC3, 10^−9 M E2 or 10^−6 M AFP-peptide, 24 h
  nuclear ERα: did not increase nuclear accumulation of ERα
Cancer cell lines; 24 hr, C6, F98, GL261, 22B, BHP 2-7, BHP 18-21, HTB 184, MCF-7 and HeLa cells
  total nuclear accumulation of ERα: increased total nuclear accumulation of estrogen receptor-α (ERα)
Cancer cell lines; MDA-MB, Colo205, OVCAR-3, LNCaP, and PC3 cells
  total nuclear ERα: no significant change in total nuclear ERα
Cancer cell lines; melanoma cells
  total nuclear ERα: decreased the total nuclear ERα
